# Experimental data reported in patent US12371752B2 (priority 2019, dated 2025).
# Tested on: Arthrobacter ureafaciens-derived neuraminidase
# Assay: Reactivity of probe with Arthrobacter ureafaciens-derived neuraminidase (time-dependent fluorescence intensity)
# Format: biochemical
# Conditions: probe 1 μM, 0.01 U neuraminidase, 100 mm NaOAc, 2 mM CaCl2, pH7.4, 37° C., excitation 490 nm, emission 520 nm
# Description: A probe (HMRef-S-Neu5Ac) was dissolved in dimethyl sulfoxide (DMSO, fluorescence measurement grade, Dojindo Laboratories) to obtain a stock solution. The stock solution was diluted with a buffer solution (100 mm NaOAc, 2 mM CaCl2, pH7.4) such that a final concentration of the probe became 1 μM, to obtain a measurement solution.
# A fluorescence spectrum of the measurement solution was obtained by Hitachi F-700, every one second (excitation wavelength 490 nm, emission wavelength 520 nm). Sixty seconds after initiation of measurement, 0.01 U of Arthrobacter ureafaciens-derived neuraminidase was added singly or in combination with an enzyme inhibitor.
smiles,measurement,value
CC(=O)N[C@H]1[C@H]([C@H](O)[C@H](O)CO)O[C@@](Oc2ccc(COc3ccc4c(c3)Oc3cc(NCC(F)(F)F)ccc3C43OCc4ccccc43)cc2)(C(=O)O)C[C@@H]1O (stereo partly shown) [HMRef-S-Neu5Ac],increase of fluorescence intensity by the reaction with the bacterium-derived neuraminidase,130 times
